The text below walks through data of the supplement of paper PMC10307832.

What all share (experiment): relative viability (nuclei count vs DMSO), 5 days (fraction); higher = more cells survive
Compound in the experiment “Obatoclax + Luminespib”: COC1=CC(c2cc3ccccc3[nH]2)=N/C1=C\c1[nH]c(C)cc1C [Obatoclax] + CCNC(=O)c1noc(-c2cc(C(C)C)c(O)cc2O)c1-c1ccc(CN2CCOCC2)cc1 [Luminespib] (partner 0.01 µM)
The gist of the method: (§1)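 Lung cancer cell lines were pin-tool dosed in 1536-well plates on the day after seeding, with either a lone drug or a fixed anchor-drug dose plus five library-drug doses (not always all listed) in √10 steps. Nuclei were counted on 4× images after 5 days. Relative viability is the ratio of treated-well to vehicle-well nuclei counts, with each value a median of duplicate plates.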

Compound in the experiment “Obatoclax + Palbociclib”: COC1=CC(c2cc3ccccc3[nH]2)=N/C1=C\c1[nH]c(C)cc1C [Obatoclax] + CC(=O)c1c(C)c2cnc(Nc3ccc(N4CCNCC4)cn3)nc2n(C2CCCC2)c1=O [Palbociclib] (partner 0.5 µM)
In a few lines: as §1

Compound in the experiment “Obatoclax + Tozasertib”: COC1=CC(c2cc3ccccc3[nH]2)=N/C1=C\c1[nH]c(C)cc1C [Obatoclax] + Cc1cc(Nc2cc(N3CCN(C)CC3)nc(Sc3ccc(NC(=O)C4CC4)cc3)n2)n[nH]1 [Tozasertib] (partner 0.1 µM)
The gist of the method: as §1

Compound in experiment [1]: CC1=CC(=NN1)NC2=CC(=NC(=N2)/C=C/C3=CC=CC=C3)N4CCN(CC4)C + CS(=O)(=O)CCNCc1ccc(-c2ccc3ncnc(Nc4ccc(OCc5cccc(F)c5)c(Cl)c4)c3c2)o1 [Lapatinib] (partner 2 µM)
The gist of the method:
as §1

For the cell line NCI-H650, the relative viability with Obatoclax + Luminespib (first compound 0.01 µM) came to 0.712; with Obatoclax + Luminespib (first compound 0.03162 µM), 0.802; with Obatoclax + Luminespib (first compound 0.3162 µM), 0.44; in the experiment with Obatoclax + Luminespib (first compound 1 µM), 0.305; with Obatoclax + Palbociclib (first compound 0.01 µM), 0.319; with Obatoclax + Palbociclib (first compound 0.03162 µM), 0.352. Also, the relative viability with Obatoclax + Palbociclib (first compound 0.3162 µM) came to 0.178; with Obatoclax + Palbociclib (first compound 1 µM) it was 0.184; with Obatoclax + Tozasertib (first compound 0.01 µM), 0.732; in the experiment with Obatoclax + Tozasertib (first compound 0.03162 µM), 0.779; with Obatoclax + Tozasertib (first compound 0.3162 µM) it was 0.631; with Obatoclax + Tozasertib (first compound 1 µM), 0.309. Moreover, the relative viability stood at 0.804 in experiment [1] (first compound 0.08 µM); 1.15 in experiment [1] (first compound 0.253 µM); 0.839 in experiment [1] (first compound 0.8 µM); 0.378 in experiment [1] (first compound 2.53 µM); 0.271 in experiment [1] (first compound 8 µM).
